Measurements published in patent publication US10000511B2, “Small molecules for the modulation of MCL-1 and methods of modulating cell death, cell division, cell differentiation and methods of treating disorders” (priority 2010, dated 2018).

biological target: BCL-XLΔC (Homo sapiens, UniProt Q07817); test: Competitive fluorescence polarization binding screen, FITC-BAD BH3/BCL-XLΔC; conditions: FITC-BAD BH3/BCL-XLΔC interaction
Sequence (Q07817 1-212 limits assumed, stated change not applied): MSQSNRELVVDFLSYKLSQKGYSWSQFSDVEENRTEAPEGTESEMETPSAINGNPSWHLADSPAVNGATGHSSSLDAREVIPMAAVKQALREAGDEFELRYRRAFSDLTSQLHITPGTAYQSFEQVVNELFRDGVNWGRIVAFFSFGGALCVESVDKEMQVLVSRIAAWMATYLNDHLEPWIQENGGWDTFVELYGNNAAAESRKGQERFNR

First: CCN(CC)c1cc(C)c2cc(NC(=O)/C=C/c3ccco3)ccc2n1
Second: O=C(/C=C/c1ccc(Br)o1)OCC(=O)c1c[nH]c2ccccc12
The “BCL-XL % Bound” value of the first is lower: 79.88% for the first, 105.6% for the second.

Compared with `CCSC1=C(C#N)C(=O)NC(c2ccc(O)cc2)S1` (stereo not shown), `COc1ccc(/C=c2\s/c(=C\C(=O)c3ccco3)[nH]c2=O)cc1O` is higher in “BCL-XL % Bound” value: 84.82% for the first, 263.7% for the second.

biological target: T1, MCL-1ΔNΔC (Homo sapiens, UniProt Q07820); test: Competitive fluorescence polarization binding screen, FITC-MCL-1 SAHB/MCL-1ΔNΔC; set-up: the C-terminal alpha-helix was deleted from each of these constructs to facilitate protein expression and purification; an additional N-terminal deletion of MCL-1 was performed; GST (N, cleaved yes); made in house; conditions: FITC-MCL-1 SAHB/MCL-1ΔNΔC interaction
T1 sequence (Q07820 172-320 limits assumed, stated change not applied): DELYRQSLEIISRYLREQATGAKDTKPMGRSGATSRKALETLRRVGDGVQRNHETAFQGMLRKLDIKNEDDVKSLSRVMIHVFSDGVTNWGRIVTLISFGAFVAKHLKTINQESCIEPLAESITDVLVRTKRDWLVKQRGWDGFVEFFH

Going from `CCN(CC)c1cc(C)c2cc(NC(=O)/C=C/c3ccco3)ccc2n1` to `Cc1ccc(/C=C2\C(=O)Nc3ccc(Br)cc32)o1` [drawing 54], the “MCL-1% Bound” value rises from 11.73% to 18.74%.

With `Cc1ccc2c(c1C)NC(C(=O)O)C1CC=CC21` (stereo not shown) the “MCL-1% Bound” value was 14.5%.

system: MCL-1ΔNΔC; test: as above; conditions: selectivity for MCL-1ΔNΔC over BCL-XLΔC (BCL-XL % Bound minus MCL-1 % Bound)

First: O=c1c(O)c(-c2ccc(O)c(O)c2)oc2cc(O)cc(O)c12
Second: Cc1ccc(/C=C2\C(=O)Nc3ccc(Br)cc32)o1 [drawing 54]
The “Spec Values” of the first is higher: 88.65 for the first, 58.85 for the second.

First: O=C(/C=C/c1ccco1)NC(=S)Nc1ccccc1C(F)(F)F
Second: COc1ccc(-c2nc3scc(CCNC(=O)/C=C/c4ccco4)n3n2)cc1
The “Spec Values” of the first is higher: 52.25 for the first, 46.24 for the second.

First: O=C(/C=C/c1ccc(Br)o1)OCC(=O)c1c[nH]c2ccccc12
Second: Cc1ccc(/C=C2\C(=O)Nc3ccc(Br)cc32)o1 [drawing 279]
The “Spec Values” of the first is lower: 52.14 for the first, 58.85 for the second.

Compared with `Cc1cc(NC(=O)/C=C/c2ccco2)n(-c2nc3ccccc3n2Cc2cccc(Oc3ccccc3)c2)n1`, `CN1CCN(C(c2ccccn2)c2c(-c3ccccc3)n(O)c3ccccc23)CC1` (stereo not shown) is higher in “Spec Values”: 48.1 for the first, 49.28 for the second.

Going from `O=C(CCN1C(=O)/C(=C\C=C\c2ccco2)SC1=S)Nc1ccc(C(=O)O)c(O)c1` to `Cc1ccc(C)n1-c1cc(Cl)ccc1C(=O)O`, the “Spec Values” rises from 54.54 to 79.84.

Going from `Oc1cccnc1NC(c1ccc(F)cc1)c1ccc2cccnc2c1O` (stereo not shown) to `COc1cc(C(c2nnnn2C2CCCCC2)N2CCc3ccccc3C2)ccc1O` (stereo not shown), the “Spec Values” falls from 71.24 to 48.33.

Going from `CC1CCN(C2=NN3C(=N)/C(=C\c4ccc(SCc5ccco5)o4)C(=O)N=C3S2)CC1` to `Cc1c(Cl)cccc1N1C(=O)CC(N2CCCc3ccccc32)C1=O` (stereo not shown), the “Spec Values” falls from 70.38 to 48.92.

With `C/C(=N\OCc1ccc(C(=O)N2CCCCC2)o1)c1cccc(C(F)(F)F)c1` the “Spec Values” was 55.34.

`CCSC1=C(C#N)C(=O)NC(c2ccc(N(C)C)cc2)S1` (stereo not shown) was tested, and the “Spec Values” was 49.2!.

biological target: T1, MCL-1ΔNΔC; test: not given; conditions: pre-incubation, dilution, re-concentration, FITC-BID BH3 FP

In the case of `Cc1cc2c(C(C)C)c(O)c(O)c(C=O)c2c(O)c1-c1c(C)cc2c(C(C)C)c(O)c(O)c(C=O)c2c1O` [Gossypol], the “mode of binding to MCL-1ΔNΔC (reversible/non-covalent vs covalent)” value is reported as “bound reversibly”.

same assay, conditions: pre-incubation, dilution, re-concentration, FITC-BID BH3 FP; listed as 1570G15

For `Cc1cc2c(C(C)C)c(O)c(O)c(C=O)c2c(O)c1-c1c(C)cc2c(C(C)C)c(O)c(O)c(C=O)c2c1O` [Gossypol], the “mode of binding to MCL-1ΔNΔC (reversible/non-covalent vs covalent)” value was “engages MCL-1 through non-covalent interactions”.
